Measurements reported in PMC7017600 (Antiviral research, 2019).
Where a name gives a salt, the structure may show the parent alone. Read-outs that look alike come from different tables or passages of the source.

Assays:
[1] = molecular target: T1, BPLF1 1–246 (Epstein-Barr virus, UniProt P03186)
[2] = molecular target: T1, BPLF1 1–246; experiment: biochemical
[3] = molecular target: T1, BPLF1 1–246; experiment: K63-linked ubiquitin chain cleavage assay; type: biochemical, Epstein Barr Virus (EBV); details: 10 μM inhibitor, 25 nM BPLF1 1–246, 2 μg K63-linked chains, overnight 37 °C, SDS gel
[4] = test system: 293 EBV+ cells; experiment: Cell viability by trypan blue exclusion; details: 48 h, concentrations up to 10 μM
[5] = test system: EBV; experiment: EBV infectious virus production, titered on Raji cells; details: 293 EBV+ cells induced with BZLF1, 48 h, at the concentrations tested
[6] = molecular target: T1, BPLF1 1–246; experiment: Suramin selectivity, Ub-Rhodamine 110 assay; type: biochemical, Epstein Barr Virus (EBV)
[7] = test system: KSHV; details: suramin up to 10 μM; for KSHV genome copy number: qPCR of supernatant of reactivated cells
[8] = molecular target: PLPro (Severe acute respiratory syndrome coronavirus, UniProt P0C6X7); experiment: biochemical
[9] = molecular target: T2, UCH-L5 (Homo sapiens, UniProt Q9Y5K5); experiment: Suramin selectivity, Ub-Rhodamine 110 assay; type: biochemical
T2 sequence (Q9Y5K5 1-329): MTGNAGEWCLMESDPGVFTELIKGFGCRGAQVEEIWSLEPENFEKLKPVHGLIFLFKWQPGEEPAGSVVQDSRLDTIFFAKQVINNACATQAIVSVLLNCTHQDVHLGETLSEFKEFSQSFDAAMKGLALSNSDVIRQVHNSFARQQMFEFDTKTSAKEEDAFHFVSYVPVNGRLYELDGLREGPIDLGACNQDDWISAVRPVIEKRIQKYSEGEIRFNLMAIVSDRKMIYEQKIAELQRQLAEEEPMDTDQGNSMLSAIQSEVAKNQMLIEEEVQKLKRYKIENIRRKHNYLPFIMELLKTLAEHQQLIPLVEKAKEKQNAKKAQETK

[10] = molecular target: Bap1 (Homo sapiens, UniProt Q92560); experiment: Suramin selectivity, Ub-Rhodamine 110 assay; type: biochemical
[11] = molecular target: T3, Cezanne (Homo sapiens, UniProt Q6GQQ9); experiment: Suramin selectivity, Ub-Rhodamine 110 assay; type: biochemical
T3 sequence (Q6GQQ9 1-843): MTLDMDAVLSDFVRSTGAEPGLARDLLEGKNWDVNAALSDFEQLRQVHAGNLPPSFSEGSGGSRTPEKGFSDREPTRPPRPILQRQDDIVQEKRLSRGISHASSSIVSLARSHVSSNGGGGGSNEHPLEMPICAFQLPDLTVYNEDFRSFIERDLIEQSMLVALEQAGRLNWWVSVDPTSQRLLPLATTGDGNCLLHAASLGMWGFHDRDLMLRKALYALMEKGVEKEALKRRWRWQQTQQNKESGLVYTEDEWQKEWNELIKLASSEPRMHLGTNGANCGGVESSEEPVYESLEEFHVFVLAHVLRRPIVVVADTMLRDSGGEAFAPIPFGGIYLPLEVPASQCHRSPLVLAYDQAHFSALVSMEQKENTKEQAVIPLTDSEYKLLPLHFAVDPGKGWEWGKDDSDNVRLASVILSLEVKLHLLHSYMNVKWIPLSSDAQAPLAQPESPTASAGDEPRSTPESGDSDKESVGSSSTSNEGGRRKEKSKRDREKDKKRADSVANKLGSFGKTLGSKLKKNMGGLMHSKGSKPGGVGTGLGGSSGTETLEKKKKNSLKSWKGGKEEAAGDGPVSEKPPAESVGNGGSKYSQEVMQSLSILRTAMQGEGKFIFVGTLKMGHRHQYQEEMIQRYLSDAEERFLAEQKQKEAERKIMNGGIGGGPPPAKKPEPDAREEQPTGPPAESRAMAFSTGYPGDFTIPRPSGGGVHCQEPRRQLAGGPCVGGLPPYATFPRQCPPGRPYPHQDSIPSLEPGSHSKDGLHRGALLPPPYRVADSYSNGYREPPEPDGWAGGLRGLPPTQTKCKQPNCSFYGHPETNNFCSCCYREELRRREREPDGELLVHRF

[12] = molecular target: KSHV ORF64 1–205 N terminal fragment (Human herpesvirus 8 type P, UniProt Q2HR64); experiment: ORF64 DUB activity in Ub-Rhodamine 110 assay; details: 10 μM suramin, 30 minutes with Ub-Rhodamine 110
[13] = molecular target: T4, Atax3L (Homo sapiens, UniProt Q9H3M9); experiment: Suramin selectivity, Ub-Rhodamine 110 assay; type: biochemical
T4 sequence (Q9H3M9 1-355): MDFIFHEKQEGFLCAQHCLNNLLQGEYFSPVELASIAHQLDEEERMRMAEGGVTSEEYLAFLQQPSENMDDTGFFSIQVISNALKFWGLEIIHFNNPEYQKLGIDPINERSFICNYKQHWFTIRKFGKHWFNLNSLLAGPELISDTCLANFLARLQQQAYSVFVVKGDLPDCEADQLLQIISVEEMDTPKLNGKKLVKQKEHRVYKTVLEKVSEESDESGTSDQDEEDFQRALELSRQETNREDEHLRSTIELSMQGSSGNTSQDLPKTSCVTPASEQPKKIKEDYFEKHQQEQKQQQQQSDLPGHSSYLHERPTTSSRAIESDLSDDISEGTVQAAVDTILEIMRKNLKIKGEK

[14] = molecular target: T5, USP8c (Homo sapiens, UniProt P40818); experiment: Suramin selectivity, Ub-Rhodamine 110 assay; type: biochemical
T5 sequence (P40818 777-1109 limits assumed): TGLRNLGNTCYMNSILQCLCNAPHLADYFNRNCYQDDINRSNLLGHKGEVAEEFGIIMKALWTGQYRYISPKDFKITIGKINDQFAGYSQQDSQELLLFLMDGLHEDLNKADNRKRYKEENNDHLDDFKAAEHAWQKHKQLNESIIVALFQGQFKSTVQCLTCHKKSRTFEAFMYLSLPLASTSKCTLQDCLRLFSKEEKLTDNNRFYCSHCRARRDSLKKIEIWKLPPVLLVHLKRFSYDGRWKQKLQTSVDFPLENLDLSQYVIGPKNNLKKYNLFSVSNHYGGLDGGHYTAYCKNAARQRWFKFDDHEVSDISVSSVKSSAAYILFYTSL

[15] = molecular target: T6, UCH-L1 (Homo sapiens, UniProt P09936); experiment: Suramin selectivity, Ub-Rhodamine 110 assay; type: biochemical
T6 sequence (P09936 1-223): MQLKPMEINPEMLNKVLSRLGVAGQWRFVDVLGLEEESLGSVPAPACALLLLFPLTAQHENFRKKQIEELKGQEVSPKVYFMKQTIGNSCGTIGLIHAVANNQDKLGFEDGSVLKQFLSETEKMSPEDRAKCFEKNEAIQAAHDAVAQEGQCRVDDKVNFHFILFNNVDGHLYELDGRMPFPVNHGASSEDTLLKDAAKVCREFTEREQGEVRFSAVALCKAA

[16] = test system: pool of cellular DUBs (293T cell lysate); experiment: Cellular DUB activity in 293T total cell lysate, Ub-Rhodamine 110; type: biochemical; details: 10 μM suramin, 293T lysate
[17] = molecular target: T7, JosD2 (Homo sapiens, UniProt Q8TAC2); experiment: Suramin selectivity, Ub-Rhodamine 110 assay; type: biochemical
T7 sequence (Q8TAC2 1-188): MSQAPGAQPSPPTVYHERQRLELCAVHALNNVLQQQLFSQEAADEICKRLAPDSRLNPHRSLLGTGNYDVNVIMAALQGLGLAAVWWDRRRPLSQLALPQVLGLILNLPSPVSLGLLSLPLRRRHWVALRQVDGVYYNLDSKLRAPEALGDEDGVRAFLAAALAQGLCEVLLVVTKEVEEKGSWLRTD

T1 sequence (P03186 1-246): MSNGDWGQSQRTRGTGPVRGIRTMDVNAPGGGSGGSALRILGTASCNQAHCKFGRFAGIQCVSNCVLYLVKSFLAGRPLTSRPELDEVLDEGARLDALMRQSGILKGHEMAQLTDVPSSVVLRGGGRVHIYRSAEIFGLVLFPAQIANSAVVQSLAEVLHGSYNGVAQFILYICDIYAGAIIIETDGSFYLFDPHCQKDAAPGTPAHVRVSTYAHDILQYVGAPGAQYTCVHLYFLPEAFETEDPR
Sequence of KSHV ORF64 1–205 N terminal fragment (Q2HR64 1-205): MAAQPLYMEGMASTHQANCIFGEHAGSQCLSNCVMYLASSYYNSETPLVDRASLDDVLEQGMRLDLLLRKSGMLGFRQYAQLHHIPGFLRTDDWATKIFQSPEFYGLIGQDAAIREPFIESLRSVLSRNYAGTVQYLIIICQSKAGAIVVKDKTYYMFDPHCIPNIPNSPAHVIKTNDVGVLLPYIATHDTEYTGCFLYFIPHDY
Sequence of Bap1 (Q92560 whole entry): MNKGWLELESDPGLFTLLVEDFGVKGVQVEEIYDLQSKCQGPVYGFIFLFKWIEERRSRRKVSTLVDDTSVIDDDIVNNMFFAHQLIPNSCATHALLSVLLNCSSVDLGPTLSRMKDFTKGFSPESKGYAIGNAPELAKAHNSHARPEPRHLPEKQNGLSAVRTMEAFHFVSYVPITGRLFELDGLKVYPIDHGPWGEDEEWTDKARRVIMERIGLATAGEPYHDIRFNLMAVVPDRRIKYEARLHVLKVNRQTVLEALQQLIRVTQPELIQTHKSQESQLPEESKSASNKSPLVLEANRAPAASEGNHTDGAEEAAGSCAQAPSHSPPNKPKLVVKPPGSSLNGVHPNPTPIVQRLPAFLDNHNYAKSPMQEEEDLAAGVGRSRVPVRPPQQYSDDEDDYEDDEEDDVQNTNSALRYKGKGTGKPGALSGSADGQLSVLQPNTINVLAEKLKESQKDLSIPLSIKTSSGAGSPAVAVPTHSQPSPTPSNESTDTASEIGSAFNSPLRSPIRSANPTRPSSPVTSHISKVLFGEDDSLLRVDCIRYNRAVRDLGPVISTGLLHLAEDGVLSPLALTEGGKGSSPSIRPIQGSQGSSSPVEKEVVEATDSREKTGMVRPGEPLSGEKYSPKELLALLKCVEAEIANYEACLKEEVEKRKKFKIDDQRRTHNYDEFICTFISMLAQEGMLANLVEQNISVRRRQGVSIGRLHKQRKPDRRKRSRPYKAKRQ

NC(Cc1cc(O)c(O)cc1O)C(=O)O (racemic) [6-Hyd roxy-DL-DOPA]
IC50 [1]: > 10 µM

O=C(O)C1=CC(=C(c2ccc(O)c(C(=O)O)c2)c2ccc(O)c(C(=O)O)c2)C=CC1=O [Aurintricarboxylic acid]
IC50 [2]: 3.3 µM

OC[C@H]1O[C@H]([S-])[C@H](O)[C@@H](O)[C@@H]1O.[Au+] [Aurothioglucose]
inhibition of K63-linked ubiquitin chain cleavage [3]: inhibited K63-linked chain cleavage | IC50 [1]: 2.5 µM | cell growth or viability [4]: not inhibit cell growth or viability | infectious virus production (in words) [5]: did not result in decreased virus production

Cc1cc2c(C(C)C)c(O)c(O)c(C=O)c2c(O)c1-c1c(C)cc2c(C(C)C)c(O)c(O)c(C=O)c2c1O [Gossypol]
IC50 [2]: 3 µM

CN(N=O)c1ccc(O)c(O)c1 [Me-3,4-dephostatin]
IC50 [1]: > 10 µM

O=C(Nc1cccc(C(=O)Nc2ccc(S(=O)(=O)O)c3cc(S(=O)(=O)O)cc(S(=O)(=O)O)c23)c1)Nc1cccc(C(=O)Nc2ccc(S(=O)(=O)O)c3cc(S(=O)(=O)O)cc(S(=O)(=O)O)c23)c1 [NF 023]
IC50 [1]: 6.1 µM

O=C1C(SCCO)=C(SCCO)C(=O)c2ccccc21 [NSC 95397]
inhibition of K63-linked ubiquitin chain cleavage [3]: inhibited K63-linked chain cleavage | IC50 [1]: 4.8 µM

Cc1nc(N=Nc2cc(S(=O)(=O)O)c3cc([N+](=O)[O-])cc(S(=O)(=O)O)c3c2)c(COP(=O)(O)O)c(C=O)c1O [PPNDS tetrasodium]
IC50 [1]: > 10 µM

C[C@]12C=CC(=O)C=C1CC[C@@H]1C2=CC[C@]2(C)[C@@H](C(=O)CN3CCN(c4cc(N5CCCC5)nc(N5CCCC5)n4)CC3)CC[C@@H]12 [U-74389G maleate]
IC50 [1]: 3.4 µM

CC1(C)CCC2=C(O1)c1ccccc1C(=O)C2=O [beta-lapachone]
inhibition of K63-linked ubiquitin chain cleavage [3]: inhibited K63-linked chain cleavage | IC50 [2]: 2.5 µM

Cc1ccc(C(=O)Nc2ccc(S(=O)(=O)O)c3cc(S(=O)(=O)O)cc(S(=O)(=O)O)c23)cc1NC(=O)c1cccc(NC(=O)Nc2cccc(C(=O)Nc3cc(C(=O)Nc4ccc(S(=O)(=O)O)c5cc(S(=O)(=O)O)cc(S(=O)(=O)O)c45)ccc3C)c2)c1 [suramin, Suramin sodium salt]
IC50 [6]: 3.3 µM | inhibition of K63-linked ubiquitin chain cleavage [3]: inhibited K63-linked chain cleavage | KSHV reactivation from latency ([7]; % reactivation of latently infected cells): no significant effect | KSHV genome copy number [7]: no significant effect | KSHV genome copy number ([7]; listed as Suramin): does not inhibit genome copy production | KSHV infectious virus production ([7]; supernatants 72 h post dox, infection of naïve 293 cells): no significant effect | IC50 [8]: 3.2 µM | IC50 [9]: 1.5 µM | IC50 [10]: 3.4 µM | IC50 [11]: 1.6 µM | decrease in ORF64 DUB activity [12]: > 80% | IC50 [13]: 2.6 µM | IC50 [14]: 3 µM | IC50 [15]: 3.6 µM | inhibition of the pool of cellular DUBs [16]: about 50% | IC50 [2]: 0.98 µM | IC50 [17]: 28 µM

Ub-aldehyde
inhibition of BPLF1 1–246 DUB activity ([1]; 5 μM Ub-aldehyde (low signal control)): approximately 95%
